US20030092683A1, “Use of tetracyclines as neuro-protective agents and for the treatment of parkinson's disease and related disorders” (priority 2001, published 2003)

System: TH-positive (dopaminergic) neurons in the SNpc
Assay: MPTP-induced neuronal death in vivo, TH-positive neurons by immunohistochemistry
Set-up: species or system C57BL/6 mice
Conditions: for viable TH-positive neurons in the SNpc: MPTP 20 mg/kg x4 on day 3, analysed 7 days after last MPTP, MPTP without minocycline 37% of control
Method: On day 3 mice were injected with MPTP (20 mg/kg×4). Seven days following the last injection of MPTP, the brains were analyzed by immun histochemistry to detect and quantify tyrosin hydroxylase (TH)-positive neurons.

## CN(C)c1ccc(O)c2c1C[C@H]1C[C@H]3[C@H](N(C)C)C(O)=C(C(N)=O)C(=O)[C@@]3(O)C(O)=C1C2=O [minocycline]
Minocycline 90 mg/kg p.o. daily for nine days
  viable TH-positive neurons in the SNpc: 56 % of control
Minocycline 120 mg/kg p.o. beginning 4 h after the last MPTP injection, MPTP without minocycline 36% of control, p<0.05
  viable TH-positive neurons in the SNpc, treatment after MPTP: 66 % of control
Minocycline 120 mg/kg p.o. daily for nine days
  viable TH-positive neurons in the SNpc: 77 % of control
